For orientation: EC50 means the midpoint of the concentration-response curve. A high value points to a need for much substance.

The record followed here is US9663496B2, “AMPK-activating heterocyclic compounds and methods for using the same” (Rigel Pharmaceuticals, Inc., priority 2010, dated 2017).

A value given as a limit tells only on which side of the number the result lay.

The target of the test is AMPK. Briefly: AMPK activation, enzyme-linked immunosorbent assay. The class given is biochemical. Particulars: EC50 for AMPK activation, ELISA. A digest of the protocol: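 Read-out: immunodetected kinase activation after compound exposure, run with commercial kit reagents.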
`COc1ccc(C(=O)C2CCN(C(=O)c3ncc(C(=O)NC4CCN(Cc5ccc(C#N)cc5)CC4)cc3CCCNC(=O)OC(C)(C)C)CC2)cc1` [Compound 416, tert-butyl 3-(5-(1-(4-cyanobenzyl)piperidin-4-ylcarbamoyl)-2-(4-(4-methoxybenzoyl)piperidine-1-carbonyl)pyridin-3-yl)propylcarbamate] returned an EC50 of 1000 to 5000 nM.

The compound `COc1ccc(CN2CCC(NC(=O)c3ccc(C(=O)N4CCC(Oc5ccc(S(F)(F)(F)(F)F)cc5)CC4)nc3)CC2)cc1` [Compound 495, N-(1-(4-methoxybenzyl)piperidin-4-yl)-6-(4-(4-(pentafluorosulfanyl)phenoxy)piperidine-1-carbonyl)nicotinamide] showed a half-maximal effective concentration (EC50) below 500 nM.

In the case of `N#Cc1ccc(-c2nnc3n2CCN(C(=O)c2ccc(C(=O)NC4CCN(Cc5cc(F)cc(F)c5)CC4)nc2)C3)cc1` [Compound 314, 5-(3-(4-cyanophenyl)-5,6,7,8-tetrahydro-[1,2,4]triazolo[4,3-a]pyrazine-7-carbonyl)-N-(1-(3,5-difluorobenzyl)piperidin-4-yl)picolinamide], the half-maximal effective concentration (EC50) was above 10000 nM.

The compound `CS(=O)(=O)c1ccc(OC2CCN(C(=O)c3ccc(C(=O)NC4CCN(Cc5cc(F)cc(F)c5)CC4)nc3)CC2)cc1` [Compound 203, N-(1-(3,5-difluorobenzyl)piperidin-4-yl)-5-(4-(4-(methylsulfonyl)phenoxy)piperidine-1-carbonyl)picolinamide] registered an EC50 below 500 nM.

Compound `CS(=O)(=O)c1ccc(CN2CCC(NC(=O)c3ccc(C(=O)N4CCC(Oc5ccc(C#N)cc5)CC4)nc3)CC2)cc1` [Compound 214, 6-(4-(4-cyanophenoxy)piperidine-1-carbonyl)-N-(1-(4-(methylsulfonyl)benzyl)piperidin-4-yl)nicotinamide] yielded an EC50 above 10000 nM.

Turning to `CC(C)N1CCN(C(=O)c2ccc(C(=O)N3CCN(CCc4ccccc4)CC3)nc2)CC1` [Compound 91, (4-isopropylpiperazin-1-yl)(6-(4-phenethylpiperazine-1-carbonyl)pyridin-3-yl)methanone], the EC50 is above 10000 nM.

Regarding `COc1ccc(CN2CCC(NC(=O)c3ccc(C(=O)N4CCN(Cc5ccc(F)cc5)CC4)cn3)CC2)cc1` [Compound 117, 5-(4-(4-fluorobenzyl)piperazine-1-carbonyl)-N-(1-(4-methoxybenzyl)piperidin-4-yl)picolinamide], the EC50 is below 500 nM.

As to `O=C(c1ccc(Nc2ccc(Oc3ccccc3)cc2)nc1)N1CCN(Cc2ccc(F)cc2)CC1` [Compound 34, (4-(4-fluorobenzyl)piperazin-1-yl)(6-(4-phenoxyphenylamino)pyridin-3-yl)methanone], the EC50 lay within 1000 to 5000 nM.

Take `COc1ccc(C(=O)C2CCN(C(=O)c3ccc(C(=O)N[C@H]4CCN(Cc5ccc(C#N)cc5)C[C@H]4F)cn3)CC2)cc1` (relative stereo) [Compound 454, N-((cis)-1-(4-cyanobenzyl)-3-fluoropiperidin-4-yl)-6-(4-(4-methoxybenzoyl)piperidine-1-carbonyl)nicotinamide]: the EC50 is below 500 nM.

The compound `CC(C)(c1ccc(C#N)cc1)N1CCC(NC(=O)c2ccc(C(=O)N3CCN(Cc4ccc(F)cc4)CC3)cn2)CC1` [Compound 111, N-(1-(2-(4-cyanophenyl)propan-2-yl)piperidin-4-yl)-5-(4-(4-fluorobenzyl)piperazine-1-carbonyl)picolinamide] showed an EC50 of 1000 to 5000 nM.

As to `CS(=O)(=O)c1ccc(OC2CCN(C(=O)c3cnc(C(=O)Nc4ccc(Oc5ccc(F)cc5)nc4)cn3)CC2)cc1` [Compound 207, N-(6-(4-fluorophenoxy)pyridin-3-yl)-5-(4-(4-(methylsulfonyl)phenoxy)piperidine-1-carbonyl)pyrazine-2-carboxamide], the EC50 is below 500 nM.

In the case of `N#Cc1ccc(CN2CCC(NC(=O)c3ccc(C(=O)N4CCN(c5ccc(C(F)(F)F)cc5)CC4)cn3)CC2)cc1` [Compound 339, N-(1-(4-cyanobenzyl)piperidin-4-yl)-5-(4-(4-(trifluoromethyl)phenyl)piperazine-1-carbonyl)picolinamide], the EC50 was below 500 nM.

In the case of `N#Cc1ccc(CN2CC[C@@H](NC(=O)c3ccc(C(=O)N4CCN(Cc5ccc(F)cc5)CC4)cn3)[C@@H](F)C2)cc1` [Compound 100], the EC50 was below 500 nM.

`CN1CCN(c2ccc(C(=O)C3CCN(C(=O)c4cnc(C(=O)NC5CCN(Cc6ccc(C#N)cc6)CC5)cn4)CC3)cc2)CC1` [Compound 220, N-(1-(4-cyanobenzyl)piperidin-4-yl)-5-(4-(4-(4-methylpiperazin-1-yl)benzoyl)piperidine-1-carbonyl)pyrazine-2-carboxamide] had a 50% effective concentration (EC50) below 500 nM.

As to `N#Cc1ccc(OC2CCN(C(=O)c3ccc(C(=O)N[C@H]4CC[C@@H](Oc5ccc(F)cc5)CC4)cn3)CC2)cc1` [Compound 324, 6-(4-(4-cyanophenoxy)piperidine-1-carbonyl)-N-((cis)-4-(4-fluorophenoxy)cyclohexyl)nicotinamide], the concentration giving a half-maximal response (EC50) was below 500 nM.

On to `N#Cc1ccc(Cn2ccc(NC(=O)c3ccc(C(=O)N4CCN(Cc5ccc(F)cc5)CC4)cn3)n2)cc1` [Compound 9, N-(1-(4-cyanobenzyl)-1H-pyrazol-3-yl)-5-(4-(4-fluorobenzyl)piperazine-1-carbonyl)picolinamide], for which the EC50 is below 500 nM.

In the case of `O=C(Nc1ccc(Oc2ccc(F)cc2)nc1)c1ccc(C(=O)N2CCC(Oc3ccc(F)cc3F)CC2)nc1` [Compound 343, 6-(4-(2,4-difluorophenoxy)piperidine-1-carbonyl)-N-(6-(4-fluorophenoxy)pyridin-3-yl)nicotinamide], the EC50 is below 500 nM.

`O=C(NC1CCN(Cc2ccc(OC(F)(F)F)cc2)CC1)c1ccc(C(=O)N2CCC(Oc3ccc(S(=O)(=O)C4CC4)cc3)CC2)nc1` [Compound 249, 6-(4-(4-(cyclopropylsulfonyl)phenoxy)piperidine-1-carbonyl)-N-(1-(4-(trifluoromethoxy)benzyl)piperidin-4-yl)nicotinamide] returned an EC50 below 500 nM.

Take `N#Cc1ccc(CN2CCC(NC(=O)c3ccc(C(=O)N4CCC(Oc5ccc([N+](=O)[O-])cc5)CC4)nc3)CC2)cc1` [Compound 363, N-(1-(4-cyanobenzyl)piperidin-4-yl)-6-(4-(4-nitrophenoxy)piperidine-1-carbonyl)nicotinamide]: the EC50 is below 500 nM.

As for `N#Cc1ccc(OC2CCN(C(=O)c3ccc(C(=O)NC4CCN(Cc5ccc(F)cc5)CC4)nc3)CC2)cc1` [Compound 200, 5-(4-(4-cyanophenoxy)piperidine-1-carbonyl)-N-(1-(4-fluorobenzyl)piperidin-4-yl)picolinamide], the EC50 was below 500 nM.

`CC(=O)c1ccc(Oc2ccc(NC(=O)c3ccc(C(=O)N4CCC(C(=O)c5ccc(F)cc5F)CC4)nc3)cn2)cc1` [Compound 464, N-(6-(4-acetylphenoxy)pyridin-3-yl)-6-(4-(2,4-difluorobenzoyl)piperidine-1-carbonyl)nicotinamide] showed an EC50 below 500 nM.

As for `N#Cc1ccc(O[C@H]2CC[C@H](NC(=O)c3ccc(C(=O)N4CCC(Oc5ccc(F)cc5)CC4)cn3)CC2)cc1` [Compound 169, N-((trans)-4-(4-cyanophenoxy)cyclohexyl)-5-(4-(4-fluorophenoxy)piperidine-1-carbonyl)picolinamide], the EC50 lay in the range of 500 to 1000 nM.

`COc1ccc(C(=O)C2CCN(C(=O)c3ccc(C(=O)N(C)C4CCN(Cc5ccc(C#N)cc5)CC4)cn3)CC2)cc1` [Compound 482, N-(1-(4-cyanobenzyl)piperidin-4-yl)-6-(4-(4-methoxybenzoyl)piperidine-1-carbonyl)-N-methylnicotinamide] returned an EC50 below 500 nM.

Take `N#Cc1ccc(CN2CCC(NC(=O)c3ccc(C(=O)N4CCN(c5ccc(C(=O)C6CC6)cc5)CC4)cn3)CC2)cc1` [Compound 258, N-(1-(4-cyanobenzyl)piperidin-4-yl)-5-(4-(4-(cyclopropanecarbonyl)phenyl)piperazine-1-carbonyl)picolinamide]: the EC50 is below 500 nM.

`N#Cc1ccc(CN2CCC(NC(=O)c3ccc(C(=O)N4CC[C@@H](Oc5ccc(F)cc5)C4)cn3)CC2)cc1` [Compound 278, (R)—N-(1-(4-cyanobenzyl)piperidin-4-yl)-5-(3-(4-fluorophenoxy)pyrrolidine-1-carbonyl)picolinamide] had an EC50 below 500 nM.

With `COc1ccc(C(=O)N2CCN(C(=O)c3ccc(C(=O)NC4CCN(Cc5ccc(C#N)cc5)CC4)nc3)CC2)cc1` [Compound 77, N-(1-(4-cyanobenzyl)piperidin-4-yl)-5-(4-(4-methoxybenzoyl)piperazine-1-carbonyl)picolinamide], the EC50 is below 500 nM.

Regarding `O=C(NC1CCN(Cc2ccc(N3CCCC3)cc2)CC1)c1ccc(C(=O)N2CCC(Oc3ccc(F)cc3)CC2)cn1` [Compound 196, 5-(4-(4-fluorophenoxy)piperidine-1-carbonyl)-N-(1-(4-(pyrrolidin-1-yl)benzyl)piperidin-4-yl)picolinamide], the EC50 is below 500 nM.

For the compound `COc1ccc(OC2CCN(C(=O)c3ccc(C(=O)NC4CCN(Cc5ccc(C#N)cc5)CC4)cn3)CC2)c(N)c1` [Compound 384, 6-(4-(2-amino-4-methoxyphenoxy)piperidine-1-carbonyl)-N-(1-(4-cyanobenzyl)piperidin-4-yl)nicotinamide], the EC50 fell in the range of 500 to 1000 nM.

Regarding `N#Cc1ccc(OC2CCN(C(=O)c3ccc(C(=O)NC4CCN(Cc5ccc(N6CCCC6)cc5)CC4)cn3)CC2)cc1` [Compound 336, 6-(4-(4-cyanophenoxy)piperidine-1-carbonyl)-N-(1-(4-(pyrrolidin-1-yl)benzyl)piperidin-4-yl)nicotinamide], the EC50 is below 500 nM.

The compound `O=C(c1ccc(C(=O)N2CCN(Cc3ccc(F)cc3)CC2)nc1)N1CCN(Cc2ccc(F)cc2)CC1` [Compound 3, pyridine-2,5-diylbis((4-(4-fluorobenzyl)piperazin-1-yl)methanone)] yielded an EC50 of 500 to 1000 nM.

In turn, `COc1ccc(C(=O)C2CCN(C(=O)c3ccc(C(=O)N[C@H]4CC[C@@H](Oc5cc(F)cc(F)c5)CC4)nc3)CC2)cc1` [Compound 300, N-((cis)-4-(3,5-difluorophenoxy)cyclohexyl)-5-(4-(4-methoxybenzoyl)piperidine-1-carbonyl)picolinamide] registered an EC50 below 500 nM.

The compound `O=C(NC1CCN(Cc2ccccc2)CC1)c1ccc(C(=O)N2CCN(Cc3ccccc3)CC2)nc1` [Compound 74, 6-(4-benzylpiperazine-1-carbonyl)-N-(1-benzylpiperidin-4-yl)nicotinamide] came in with an EC50 below 500 nM.
